Experimental data from PubChem BioAssay AID248 (DTP/NCI, 2004).
Values joined by “and” are separate entries in the source; they are usually repeats but may differ in a detail not shown here. Identical values can stand only once. Toxic doses and inconclusive results are not listed. No stated cut-off is given here; in the data, active means T/C of 150% or more; inactive means T/C below 125%.

System: L1210 leukemia ip in BDF1 mice, survival T/C
Assay: NCI In Vivo Anticancer Drug Screen. Data for tumor model L1210 Leukemia (intraperitoneal) in B6D2F1 (BDF1) mice
Details: endpoint: mean survival time, higher = longer survival
Outline: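 Survival endpoint. Drug-treated group vs vehicle group, expressed as T divided by C. Tumor passaged by transplantation.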

[1] = dose: 25.0 mg/kg/injection, schedule: Q01DX009 (ip), vehicle: water
[2] = dose: 50.0 mg/kg/injection, schedule: Q01DX009 (ip), vehicle: Klucel (hydroxypropylcellulose) (HPC)
[3] = dose: 100.0 mg/kg/injection, schedule: Q01DX009 (ip), vehicle: Klucel (hydroxypropylcellulose) (HPC)
[4] = dose: 100.0 mg/kg/injection, schedule: Q04DX003 (ip), vehicle: Klucel (hydroxypropylcellulose) (HPC)
[5] = dose: 200.0 mg/kg/injection, schedule: Q01DX009 (ip), vehicle: Klucel (hydroxypropylcellulose) (HPC)
[6] = dose: 200.0 mg/kg/injection, schedule: Q04DX003 (ip), vehicle: Klucel (hydroxypropylcellulose) (HPC)
[7] = dose: 400.0 mg/kg/injection, schedule: Q01DX009 (ip), vehicle: Klucel (hydroxypropylcellulose) (HPC)
[8] = dose: 400.0 mg/kg/injection, schedule: Q04DX003 (ip), vehicle: Klucel (hydroxypropylcellulose) (HPC)
[9] = dose: 100.0 mg/kg/injection, schedule: Q01DX001 (ip), vehicle: saline
[10] = dose: 200.0 mg/kg/injection, schedule: Q01DX001 (ip), vehicle: saline
[11] = dose: 400.0 mg/kg/injection, schedule: Q01DX001 (ip), vehicle: saline
[12] = dose: 100.0 mg/kg/injection, schedule: Q04DX002 (ip), vehicle: saline
[13] = dose: 100.0 mg/kg/injection, schedule: Q04DX003 (ip), vehicle: saline
[14] = dose: 200.0 mg/kg/injection, schedule: Q04DX002 (ip), vehicle: saline
[15] = dose: 200.0 mg/kg/injection, schedule: Q04DX003 (ip), vehicle: saline
[16] = dose: 400.0 mg/kg/injection, schedule: Q04DX002 (ip), vehicle: saline
[17] = dose: 400.0 mg/kg/injection, schedule: Q04DX003 (ip), vehicle: saline
[18] = dose: 100.0 mg/kg/injection, schedule: Q01DX009 (ip), vehicle: saline with Tween-80
[19] = dose: 200.0 mg/kg/injection, schedule: Q01DX009 (ip), vehicle: saline with Tween-80

Measured: T/C

CCN(Cc1ccc(Cl)c(Cl)c1)c1ccc2nc(N)nc(N)c2c1C
inactive: dose: 1.56 mg/kg/injection, schedule: Q01DX009 (ip), vehicle: water 110 % of control | dose: 3.12 mg/kg/injection, schedule: Q01DX009 (ip), vehicle: water 103 % of control and 110 % of control | dose: 6.25 mg/kg/injection, schedule: Q01DX009 (ip), vehicle: water 116 % of control and 124 % of control | dose: 12.5 mg/kg/injection, schedule: Q01DX009 (ip), vehicle: water 121 % of control | [1] 110 % of control

CCC(C)C(C(=O)OCCN(CC)CC)c1ccccc1 (stereo not drawn)
inactive: [2] 95 % of control | [3] 97 % of control | [4] 96 % of control | [5] 104 % of control | [6] 91 % of control

CC(C)c1cccc(C(C)C)c1OC(=O)Nc1ccccc1Cl
inactive: [3] 105 % of control | [4] 100 % of control | [5] 89 % of control | [6] 102 % of control | [7] 89 % of control | [8] 103 % of control

O=C(c1ccccc1)C1C(C(=O)c2ccccc2)C(c2ccccc2)N(c2ccccc2)C1c1ccccc1 (stereo not drawn)
inactive: dose: 50.0 mg/kg/injection, schedule: Q01DX001 (ip), vehicle: saline 94 % of control | [9] 94 % of control | [10] 97 % of control | [11] 105 % of control

CN(C)c1ccc(C=Nc2ccc(S(N)(=O)=O)cc2)cc1
inactive: [3] 100 % of control | [5] 93 % of control | [7] 98 % of control

O=C(OC1CC2CCC1CC2)c1ccc([N+](=O)[O-])cc1 (stereo not drawn)
inactive: [9] 97 % of control | [10] 95 % of control | [11] 92 % of control

O=C1NCCN1
inactive: dose: 100.0 mg/kg/injection, schedule: Q01DX009 (ip), vehicle: saline 101 % of control | [12] 103 % of control | [13] 104 % of control | dose: 200.0 mg/kg/injection, schedule: Q01DX009 (ip), vehicle: saline 106 % of control | [14] 107 % of control | [15] 101 % of control | dose: 400.0 mg/kg/injection, schedule: Q01DX009 (ip), vehicle: saline 106 % of control | [16] 107 % of control | [17] 95 % of control

Cc1c(C)c(O)c2c(c1C)C(C)C(=O)OC2=O (stereo not drawn)
inactive: dose: 5.0 mg/kg/injection, schedule: Q01DX001 (ip), vehicle: saline 104 % of control | dose: 10.0 mg/kg/injection, schedule: Q01DX001 (ip), vehicle: saline 100 % of control | dose: 20.0 mg/kg/injection, schedule: Q01DX001 (ip), vehicle: saline 92 % of control | dose: 40.0 mg/kg/injection, schedule: Q01DX001 (ip), vehicle: saline 97 % of control

O=C(ON=C1C=CC(=NOC(=O)c2ccccc2)C=C1)c1ccccc1
inactive: [9] 97 % of control | [10] 102 % of control | [11] 91 % of control

COc1ccc(OC)c(NC(=O)Nc2cccc(F)c2)c1
inactive: dose: 100.0 mg/kg/injection, schedule: Q01DX009 (ip), vehicle: gum acacia 90 % of control | dose: 200.0 mg/kg/injection, schedule: Q01DX009 (ip), vehicle: gum acacia 92 % of control

CN(C)Cc1ccc(C(C)(C)C)cc1
inactive: [1] 97 % of control | dose: 50.0 mg/kg/injection, schedule: Q01DX009 (ip), vehicle: water 105 % of control | dose: 100.0 mg/kg/injection, schedule: Q01DX009 (ip), vehicle: water 95 % of control

Cc1ccc(C2C(C(=O)N3CCN(C)CC3)C2c2ccccc2)cc1 (stereo not drawn)
inactive: dose: 25.0 mg/kg/injection, schedule: Q04DX002 (ip), vehicle: saline 98 % of control | dose: 50.0 mg/kg/injection, schedule: Q04DX002 (ip), vehicle: saline 98 % of control | [12] 95 % of control

CCOC(=O)c1cnc(SC)nc1N1CCOCC1
inactive: [4] 98 % of control | [6] 93 % of control | [8] 100 % of control

CC(C)CC1NC(=O)C(Cc2ccc(OCc3ccccc3)cc2)NC1=O (stereo not drawn)
inactive: [18] 102 % of control | [13] 104 % of control | [19] 96 % of control | [15] 88 % of control | dose: 400.0 mg/kg/injection, schedule: Q01DX009 (ip), vehicle: saline with Tween-80 100 % of control | [17] 94 % of control

COc1cccc(/C=N/NC(=O)CNC(=O)Nc2cccc([N+](=O)[O-])c2)c1OC
inactive: dose: 50.0 mg/kg/injection, schedule: Q01DX009 (ip), vehicle: saline with Tween-80 89 % of control | [18] 96 % of control | [19] 89 % of control

Cn1cc(NC(=O)c2cc(NC(=O)c3cc(NC=O)cn3C)cn2C)cc1C(=O)NCCC(=N)N
inactive: dose: 12.5 mg/kg/injection, schedule: Q01DX009 (ip), vehicle: Klucel (hydroxypropylcellulose) (HPC) 95 % of control | dose: 25.0 mg/kg/injection, schedule: Q01DX009 (ip), vehicle: Klucel (hydroxypropylcellulose) (HPC) 98 % of control | dose: 25.0 mg/kg/injection, schedule: Q01DX Z (ip), vehicle: water 100 % of control | [2] 92 % of control | dose: 50.0 mg/kg/injection, schedule: Q01DX Z (ip), vehicle: water 104 % of control | dose: 75.0 mg/kg/injection, schedule: Q01DX Z (ip), vehicle: water 104 % of control | dose: 100.0 mg/kg/injection, schedule: Q01DX Z (ip), vehicle: water 100 % of control

C/C(=N\NC(=S)Nc1cc(Cl)ccc1Cl)c1cc([N+](=O)[O-])c(O)cc1O
inactive: dose: 100.0 mg/kg/injection, schedule: Q01DX001 (ip), vehicle: Klucel (hydroxypropylcellulose) (HPC) 104 % of control | dose: 200.0 mg/kg/injection, schedule: Q01DX001 (ip), vehicle: Klucel (hydroxypropylcellulose) (HPC) 101 % of control | dose: 400.0 mg/kg/injection, schedule: Q01DX001 (ip), vehicle: Klucel (hydroxypropylcellulose) (HPC) 93 % of control

CNCCOC(=O)c1cc([N+](=O)[O-])c(C)s1
inactive: [9] 94 % of control | [10] 103 % of control | [11] 100 % of control

CCC(C)C1NC(=O)C(NC(=O)c2c3nc4c(C(=O)NC5C(=O)NC(C(C)CC)C(=O)N6CCCC6C(=O)N(C)CC(=O)N(C)C(C(C)C)C(=O)OC5C)cc(N)c(C)c4oc-3c(C)c(=O)c2N)C(C)OC(=O)C(C(C)C)N(C)C(=O)CN(C)C(=O)C2CCCN2C1=O (stereo not drawn)
inactive: dose: 75.0 micrograms/kg/injection, schedule: Q01DX009 (ip), vehicle: saline + alcohol 119 % of control | dose: 100.0 micrograms/kg/injection, schedule: Q01DX009 (ip), vehicle: saline + alcohol 121 % of control | dose: 150.0 micrograms/kg/injection, schedule: Q01DX009 (ip), vehicle: saline + alcohol 124 % of control | dose: 300.0 micrograms/kg/injection, schedule: Q01DX009 (ip), vehicle: saline + alcohol 105 % of control | dose: 300.0 micrograms/kg/injection, schedule: Q04DX003 (ip), vehicle: saline + alcohol 122 % of control | dose: 400.0 micrograms/kg/injection, schedule: Q01DX009 (ip), vehicle: saline + alcohol 86 % of control

CCOCCOCCOC(C)Oc1ccc(C(=O)OC)cc1 (stereo not drawn)
inactive: [12] 99 % of control | [14] 96 % of control | [16] 89 % of control

O=C(Nc1ccc(S(=O)(=O)O)cc1)c1ccc(C(=O)Nc2ccc(S(=O)(=O)O)cc2)cc1
inactive: dose: 30.0 mg/kg/injection, schedule: Q01DX Z (ip), vehicle: saline 91 % of control | dose: 60.0 mg/kg/injection, schedule: Q01DX Z (ip), vehicle: saline 97 % of control | dose: 120.0 mg/kg/injection, schedule: Q01DX Z (ip), vehicle: saline 93 % of control

O=C(Nc1cccc2ccccc12)OC/C=C/c1ccccc1
inactive: dose: 100.0 mg/kg/injection, schedule: Q04DX002 (ip), vehicle: Klucel (hydroxypropylcellulose) (HPC) 119 % of control | dose: 200.0 mg/kg/injection, schedule: Q04DX002 (ip), vehicle: Klucel (hydroxypropylcellulose) (HPC) 93 % of control | dose: 400.0 mg/kg/injection, schedule: Q04DX002 (ip), vehicle: Klucel (hydroxypropylcellulose) (HPC) 104 % of control

CC1(C)C(C)(C)C1(F)Cl
inactive: dose: 100.0 mg/kg/injection, schedule: Q01DX001 (ip), vehicle: carboxymethylcellulose (CMC) 101 % of control | dose: 200.0 mg/kg/injection, schedule: Q01DX001 (ip), vehicle: carboxymethylcellulose (CMC) 106 % of control | dose: 400.0 mg/kg/injection, schedule: Q01DX001 (ip), vehicle: carboxymethylcellulose (CMC) 118 % of control
